According to article PMC8722715 (Frontiers in Cell and Developmental Biology, 2021):

Legend:
hNaV1.7 channel = target: T1, hNaV1.7 channel (Homo sapiens, UniProt Q15858); assay: Automated patch-clamp block of hNaV1.7 peak Na+ current in CHO cells; format: cell-based; conditions: for IC50: CHO cells stably expressing hNaV1.7, SyncroPatch 384 PE whole-cell, holding -100 mV, -10 mV test pulse 50 ms every 5 s, room temperature 18-22°C, 0.3% BSA, steady state or end of 15-min application, mean, S.E.M. and n cells; for hNaV1.7/hNaV1.6 selectivity ratio: inverse ratio of the mean IC50 values on hNaV1.7 (CHO) and hNaV1.6 (HEK-293) of Table 1; for hNaV1.7 IC50 versus WT: ratio of analogue mean IC50 to HwTx-IV WT mean IC50 on hNaV1.7
T1 construct: expressed in transfected cells
Description: (§1) CHO cells stably expressing the hNaV1.7 channel subtype were cultured in Dulbecco’s Modified Eagle’s Medium F-12 (DMEM/F12) supplemented with 10% fetal bovine serum, 2 mM glutamine, 200 μg/ml hygromycine B, 10 U/ml penicillin and 10 μg/ml streptomycin (Gibco, Grand Island, NY). HEK-293 cells stably expressing the hNaV1.6 channel subtype were cultured in Dulbecco’s Modified Eagle’s Medium (DMEM) supplemented with 10% fetal calf serum, 1 mM pyruvic acid, 4.5 g/L glucose, 2 mM glutamine, 800 μg/ml G418, 10 U/ml penicillin and 10 μg/ml streptomycin (Gibco, Grand Island, NY). All cell lines were incubated at 37°C in a 5% CO2 atmosphere. For electrophysiological recordings, cells were detached with trypsin, and floating single cells were diluted (∼300,000 cells/ml) in an extracellular solution containing (in mM): 140 NaCl, 4 KCl, 2 CaCl2, 1 MgCl2, 5 glucose and 10 HEPES (pH 7.4, osmolarity 298 mOsm), that was used throughout the experiments.
HwTx-IV analogues were investigated on CHO cells expressing hNav1.7 channel and HEK-293 cells expressing hNaV1.6 channel using the automated patch-clamp system from Nanion (SyncroPatch 384 PE; München, Germany). Chips with single-hole and high-resistance (∼6–7 MΩ) were used for both cell lines. Voltage pulses and whole-cell recordings were achieved using the PatchControl384 v1.5.2 software (Nanion) and the Biomek v1.0 interface (Beckman Coulter). Prior to recordings, dissociated cells were shaken at 200 RPM in a cell hotel reservoir at 10°C. After cell catching, sealing, whole-cell formation, liquid application, recording, and data acquisition were all performed sequentially and automatically. The intracellular solution contained (in mM): 110 CsF, 10 CsCl, 10 NaCl, 1 MgCl2, 1 CaCl2, 10 EGTA and 10 HEPES (pH 7.2, osmolarity 280 mOsm), and the extracellular solution was as described above. Whole-cell experiments were done at −100 mV holding potential and at room temperature (18–22°C), while currents triggered at either −10 or 0 mV test potential were sampled at 20 kHz. Stimulation frequency was set at 0.2 Hz. Each HwTx-IV analogue was prepared at various concentrations in the extracellular solution, itself supplemented with 0.3% of bovine serum albumin (BSA), also added in the control solution. […] Compound solutions were diluted 3 times in the patch-clamp recording well by adding 30–60 μl external solution, to reach the final reported concentration and the test volume of 90 μl. For establishing dose-response curves, the compounds were tested at a test potential of either −10 or 0 mV for 50 ms with a pulse every 5 s. Percentages of current inhibition were measured at steady-state of blockage or at the end of a 15-min application time.

hNaV1.6 channel = target: T2, hNaV1.6 channel (Homo sapiens, UniProt Q9UQD0); assay: Automated patch-clamp block of hNaV1.6 peak Na+ current in HEK-293 cells; format: cell-based; conditions: for IC50: HEK-293 cells stably expressing hNaV1.6, SyncroPatch 384 PE whole-cell, holding -100 mV, 0 mV test pulse 50 ms every 5 s, room temperature 18-22°C, 0.3% BSA, steady state or end of 15-min application, mean, S.E.M. and n cells; for hNaV1.6 IC50 versus WT: ratio of analogue mean IC50 to HwTx-IV WT mean IC50 on hNaV1.6
T2 construct: expressed in transfected cells
Description: as §1
HwTx-IV analogues were investigated on CHO cells expressing hNav1.7 channel and HEK-293 cells expressing hNaV1.6 channel using the automated patch-clamp system from Nanion (SyncroPatch 384 PE; München, Germany). Chips with single-hole and high-resistance (∼6–7 MΩ) were used for both cell lines. Voltage pulses and whole-cell recordings were achieved using the PatchControl384 v1.5.2 software (Nanion) and the Biomek v1.0 interface (Beckman Coulter). Prior to recordings, dissociated cells were shaken at 200 RPM in a cell hotel reservoir at 10°C. After cell catching, sealing, whole-cell formation, liquid application, recording, and data acquisition were all performed sequentially and automatically. The intracellular solution contained (in mM): 110 CsF, 10 CsCl, 10 NaCl, 1 MgCl2, 1 CaCl2, 10 EGTA and 10 HEPES (pH 7.2, osmolarity 280 mOsm), and the extracellular solution was as described above. Whole-cell experiments were done at −100 mV holding potential and at room temperature (18–22°C), while currents triggered at either −10 or 0 mV test potential were sampled at 20 kHz. Stimulation frequency was set at 0.2 Hz. Each HwTx-IV analogue was prepared at various concentrations in the extracellular solution, itself supplemented with 0.3% of bovine serum albumin (BSA), also added in the control solution. The peptides were distributed in 384-well microplates according to the number of compounds to be tested (generally four), the concentration range defined from the IC50 of wild-type HwTx-IV, and the number of cells desired for each experimental condition. Compound solutions were diluted 3 times in the patch-clamp recording well by adding 30–60 μl external solution, to reach the final reported concentration and the test volume of 90 μl. For establishing dose-response curves, the compounds were tested at a test potential of either −10 or 0 mV for 50 ms with a pulse every 5 s. Percentages of current inhibition were measured at steady-state of blockage or at the end of a 15-min application time.

T1 sequence (Q15858 whole entry): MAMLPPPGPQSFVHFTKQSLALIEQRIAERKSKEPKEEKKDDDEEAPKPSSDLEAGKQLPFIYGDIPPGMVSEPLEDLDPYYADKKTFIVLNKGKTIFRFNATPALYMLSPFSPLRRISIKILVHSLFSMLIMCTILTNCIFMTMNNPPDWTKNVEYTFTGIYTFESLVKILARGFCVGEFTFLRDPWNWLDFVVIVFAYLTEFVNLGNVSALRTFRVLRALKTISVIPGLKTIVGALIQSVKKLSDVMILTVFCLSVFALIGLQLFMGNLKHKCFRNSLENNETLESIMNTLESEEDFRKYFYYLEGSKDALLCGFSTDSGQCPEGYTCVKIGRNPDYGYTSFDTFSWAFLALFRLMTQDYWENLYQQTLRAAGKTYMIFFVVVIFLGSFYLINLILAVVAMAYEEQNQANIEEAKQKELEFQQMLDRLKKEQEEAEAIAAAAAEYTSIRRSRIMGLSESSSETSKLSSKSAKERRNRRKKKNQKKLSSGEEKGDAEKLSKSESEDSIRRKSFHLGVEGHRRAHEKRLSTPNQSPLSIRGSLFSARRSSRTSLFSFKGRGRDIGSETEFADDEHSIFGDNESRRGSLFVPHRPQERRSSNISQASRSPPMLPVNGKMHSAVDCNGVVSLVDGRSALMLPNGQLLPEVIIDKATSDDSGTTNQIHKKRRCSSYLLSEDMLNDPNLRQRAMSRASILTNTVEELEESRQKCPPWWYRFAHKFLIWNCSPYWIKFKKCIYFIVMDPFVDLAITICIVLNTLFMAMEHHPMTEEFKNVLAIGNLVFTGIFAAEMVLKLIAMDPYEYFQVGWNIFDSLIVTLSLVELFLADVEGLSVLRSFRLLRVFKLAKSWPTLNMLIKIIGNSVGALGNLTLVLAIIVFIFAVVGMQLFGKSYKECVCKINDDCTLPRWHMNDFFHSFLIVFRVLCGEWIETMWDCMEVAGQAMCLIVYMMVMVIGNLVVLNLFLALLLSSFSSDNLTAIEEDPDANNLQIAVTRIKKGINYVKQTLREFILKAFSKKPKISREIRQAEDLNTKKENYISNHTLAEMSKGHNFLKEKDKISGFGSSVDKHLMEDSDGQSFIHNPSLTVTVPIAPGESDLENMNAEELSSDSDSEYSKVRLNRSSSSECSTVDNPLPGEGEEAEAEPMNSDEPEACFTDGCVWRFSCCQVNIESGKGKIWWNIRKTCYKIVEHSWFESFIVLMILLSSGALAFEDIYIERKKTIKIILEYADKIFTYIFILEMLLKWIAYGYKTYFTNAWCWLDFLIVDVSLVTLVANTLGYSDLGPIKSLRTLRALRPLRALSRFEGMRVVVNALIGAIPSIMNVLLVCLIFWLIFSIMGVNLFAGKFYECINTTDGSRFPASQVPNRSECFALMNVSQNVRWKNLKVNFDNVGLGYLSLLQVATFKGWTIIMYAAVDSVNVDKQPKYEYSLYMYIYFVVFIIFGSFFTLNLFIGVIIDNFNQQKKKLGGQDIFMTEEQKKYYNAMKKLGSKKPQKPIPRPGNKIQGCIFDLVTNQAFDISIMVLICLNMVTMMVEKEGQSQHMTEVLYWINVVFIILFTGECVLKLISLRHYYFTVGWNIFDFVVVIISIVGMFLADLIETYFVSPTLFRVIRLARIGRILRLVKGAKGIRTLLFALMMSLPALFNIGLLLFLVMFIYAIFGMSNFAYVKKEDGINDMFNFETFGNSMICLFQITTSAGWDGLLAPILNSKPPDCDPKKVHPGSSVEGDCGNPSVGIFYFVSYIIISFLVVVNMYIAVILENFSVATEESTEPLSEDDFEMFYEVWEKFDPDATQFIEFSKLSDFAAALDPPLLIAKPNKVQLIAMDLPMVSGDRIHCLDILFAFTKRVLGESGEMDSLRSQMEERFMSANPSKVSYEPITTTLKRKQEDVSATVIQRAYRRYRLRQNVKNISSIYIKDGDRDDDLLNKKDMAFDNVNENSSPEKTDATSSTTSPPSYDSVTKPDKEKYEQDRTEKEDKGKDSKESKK
T2 sequence (Q9UQD0 whole entry): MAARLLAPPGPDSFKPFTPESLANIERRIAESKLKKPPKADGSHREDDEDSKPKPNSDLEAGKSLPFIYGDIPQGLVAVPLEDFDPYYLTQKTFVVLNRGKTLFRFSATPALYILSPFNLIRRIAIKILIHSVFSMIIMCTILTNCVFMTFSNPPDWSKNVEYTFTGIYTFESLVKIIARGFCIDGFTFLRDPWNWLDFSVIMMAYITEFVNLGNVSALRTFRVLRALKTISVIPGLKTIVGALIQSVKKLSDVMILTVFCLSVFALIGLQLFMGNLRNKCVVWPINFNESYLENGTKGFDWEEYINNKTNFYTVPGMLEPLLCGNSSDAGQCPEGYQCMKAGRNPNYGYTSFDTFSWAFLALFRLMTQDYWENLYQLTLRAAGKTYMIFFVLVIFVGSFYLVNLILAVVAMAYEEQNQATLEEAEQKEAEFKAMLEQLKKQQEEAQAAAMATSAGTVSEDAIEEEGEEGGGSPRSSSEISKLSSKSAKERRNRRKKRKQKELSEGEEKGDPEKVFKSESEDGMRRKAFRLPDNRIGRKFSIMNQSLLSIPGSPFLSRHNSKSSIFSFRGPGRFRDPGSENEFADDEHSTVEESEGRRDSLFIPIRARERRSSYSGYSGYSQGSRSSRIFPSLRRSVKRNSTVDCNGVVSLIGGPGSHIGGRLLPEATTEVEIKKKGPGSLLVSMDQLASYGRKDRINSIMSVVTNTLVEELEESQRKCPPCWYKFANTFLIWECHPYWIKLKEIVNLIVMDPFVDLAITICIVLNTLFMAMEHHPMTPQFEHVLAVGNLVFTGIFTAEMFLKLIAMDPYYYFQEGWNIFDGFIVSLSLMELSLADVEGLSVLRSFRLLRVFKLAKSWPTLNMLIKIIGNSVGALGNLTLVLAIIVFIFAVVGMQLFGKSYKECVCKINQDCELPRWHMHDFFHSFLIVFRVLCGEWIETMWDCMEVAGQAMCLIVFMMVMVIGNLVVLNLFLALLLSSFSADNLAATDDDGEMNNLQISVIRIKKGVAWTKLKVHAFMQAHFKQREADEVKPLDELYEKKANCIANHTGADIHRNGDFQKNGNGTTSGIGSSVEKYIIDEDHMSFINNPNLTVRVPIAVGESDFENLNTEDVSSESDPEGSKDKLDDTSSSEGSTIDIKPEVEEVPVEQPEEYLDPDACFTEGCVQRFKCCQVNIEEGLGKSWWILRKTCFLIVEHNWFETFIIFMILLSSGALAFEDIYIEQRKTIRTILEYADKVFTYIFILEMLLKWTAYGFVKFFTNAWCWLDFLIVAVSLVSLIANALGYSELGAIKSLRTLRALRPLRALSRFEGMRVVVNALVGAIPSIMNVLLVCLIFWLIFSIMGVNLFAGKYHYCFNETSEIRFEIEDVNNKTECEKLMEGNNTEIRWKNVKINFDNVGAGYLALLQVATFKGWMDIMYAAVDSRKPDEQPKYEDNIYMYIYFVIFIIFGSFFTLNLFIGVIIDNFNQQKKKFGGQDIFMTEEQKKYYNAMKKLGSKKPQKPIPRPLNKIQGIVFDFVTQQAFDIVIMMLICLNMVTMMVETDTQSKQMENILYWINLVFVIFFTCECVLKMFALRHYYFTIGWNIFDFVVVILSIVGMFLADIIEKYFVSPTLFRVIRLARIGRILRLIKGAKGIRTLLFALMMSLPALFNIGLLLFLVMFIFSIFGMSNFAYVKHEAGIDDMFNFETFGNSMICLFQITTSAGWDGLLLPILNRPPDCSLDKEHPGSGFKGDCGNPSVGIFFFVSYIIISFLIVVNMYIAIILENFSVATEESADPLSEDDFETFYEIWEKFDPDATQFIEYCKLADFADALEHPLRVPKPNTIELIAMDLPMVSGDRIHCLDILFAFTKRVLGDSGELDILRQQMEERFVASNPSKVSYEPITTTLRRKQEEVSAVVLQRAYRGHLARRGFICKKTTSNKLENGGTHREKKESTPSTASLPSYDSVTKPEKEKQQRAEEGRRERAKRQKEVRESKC

SMILES	IC50 (hNaV1.7 channel)	hNaV1.7/hNaV1.6 selectivity ratio (hNaV1.7 channel)	hNaV1.7 IC50 versus WT (hNaV1.7 channel)	IC50 (hNaV1.6 channel)	hNaV1.6 IC50 versus WT (hNaV1.6 channel)
CC[C@H](C)[C@H](NC(=O)[C@H](CCC(N)=O)NC(=O)[C@H](Cc1ccc(O)cc1)NC(=O)[C@H](CCCCN)NC(=O)[C@@H]1CSSC[C@@H]2NC(=O)[C@H](CCC(N)=O)NC(=O)[C@H](CC(=O)O)NC(=O)[C@H](CC(N)=O)NC(=O)[C@H](CO)NC(=O)[C@@H]3CCCN3C(=O)[C@H](CC(N)=O)NC(=O)[C@@H]3CSSC[C@H](NC(=O)[C@H](C(C)C)NC(=O)[C@H](CC(C)C)NC(=O)[C@H](CCCCN)NC(=O)[C@H](CO)NC(=O)[C@H](CO)NC(=O)[C@H](CCCCN)NC(=O)[C@H](CSSC[C@H](NC(=O)[C@@H](N)CCC(=O)O)C(=O)N[C@@H](CC(C)C)C(=O)N[C@@H](CCCCN)C(=O)N[C@@H]([C@@H](C)CC)C(=O)N[C@@H](Cc4ccccc4)C(=O)N[C@@H](CCCCN)C(=O)N[C@@H](C)C(=O)N3)NC2=O)C(=O)N[C@@H](CO)C(=O)N[C@@H](CCC(N)=O)C(=O)N[C@@H](CCCCN)C(=O)N[C@@H]([C@@H](C)O)C(=O)N[C@@H](CCCNC(=N)N)C(=O)N[C@@H](Cc2c[nH]c3ccccc23)C(=O)N1)C(N)=O [HwTx-IV E^4K/R ^26Q]	3.6 nM	less than 2	0.36	3.4 nM	0.02
CC[C@H](C)[C@H](NC(=O)[C@H](CCC(N)=O)NC(=O)[C@H](Cc1ccc(O)cc1)NC(=O)[C@H](CC(N)=O)NC(=O)[C@@H]1CSSC[C@@H]2NC(=O)[C@H](CCC(N)=O)NC(=O)[C@H](CC(=O)O)NC(=O)[C@H](CC(N)=O)NC(=O)[C@H](CO)NC(=O)[C@@H]3CCCN3C(=O)[C@H](CC(N)=O)NC(=O)[C@@H]3CSSC[C@H](NC(=O)[C@H](C(C)C)NC(=O)[C@H](CC(C)C)NC(=O)[C@H](CCCCN)NC(=O)[C@H](CO)NC(=O)[C@H](CO)NC(=O)[C@H](CCCCN)NC(=O)[C@H](CSSC[C@H](NC(=O)[C@@H](N)CCC(=O)O)C(=O)N[C@@H](CC(C)C)C(=O)N[C@@H](CCCNC(=N)N)C(=O)N[C@@H]([C@@H](C)CC)C(=O)N[C@@H](Cc4ccccc4)C(=O)N[C@@H](CCCCN)C(=O)N[C@@H](C)C(=O)N3)NC2=O)C(=O)N[C@@H](CO)C(=O)N[C@@H](CCCNC(=N)N)C(=O)N[C@@H](CCCCN)C(=O)N[C@@H]([C@@H](C)O)C(=O)N[C@@H](CCCNC(=N)N)C(=O)N[C@@H](Cc2c[nH]c3ccccc23)C(=O)N1)C(N)=O [HwTx-IV E^4R/K^32N]	> 1000 nM	–	>101	> 333 nM	>1.5
CC[C@H](C)[C@H](NC(=O)[C@H](CCC(N)=O)NC(=O)[C@H](Cc1ccc(O)cc1)NC(=O)[C@H](CCCCN)NC(=O)[C@@H]1CSSC[C@@H]2NC(=O)[C@H](CCC(N)=O)NC(=O)[C@H](CC(=O)O)NC(=O)[C@H](CC(N)=O)NC(=O)[C@H](CO)NC(=O)[C@@H]3CCCN3C(=O)[C@H](CC(N)=O)NC(=O)[C@@H]3CSSC[C@H](NC(=O)[C@H](C(C)C)NC(=O)[C@H](CC(C)C)NC(=O)[C@H](CCCCN)NC(=O)[C@H](CO)NC(=O)[C@H](CO)NC(=O)[C@H](C)NC(=O)[C@H](CSSC[C@H](NC(=O)[C@@H](N)CCC(=O)O)C(=O)N[C@@H](CC(C)C)C(=O)N[C@@H](CCC(=O)O)C(=O)N[C@@H]([C@@H](C)CC)C(=O)N[C@@H](Cc4ccccc4)C(=O)N[C@@H](CCCCN)C(=O)N[C@@H](C)C(=O)N3)NC2=O)C(=O)N[C@@H](CO)C(=O)N[C@@H](CCCNC(=N)N)C(=O)N[C@@H](CCCCN)C(=O)N[C@@H]([C@@H](C)O)C(=O)N[C@@H](CCCNC(=N)N)C(=O)N[C@@H](Cc2c[nH]c3ccccc23)C(=O)N1)C(N)=O [HwTx-IV K^18A]	6.4 nM	above 46	0.65	416 nM	1.84
CC[C@H](C)[C@H](NC(=O)[C@H](CCC(N)=O)NC(=O)[C@H](Cc1ccc(O)cc1)NC(=O)[C@H](CC(N)=O)NC(=O)[C@@H]1CSSC[C@@H]2NC(=O)[C@H](CCC(N)=O)NC(=O)[C@H](CC(=O)O)NC(=O)[C@H](CC(N)=O)NC(=O)[C@H](CO)NC(=O)[C@@H]3CCCN3C(=O)[C@H](CC(N)=O)NC(=O)[C@@H]3CSSC[C@H](NC(=O)[C@H](C(C)C)NC(=O)[C@H](CC(C)C)NC(=O)[C@H](CCCCN)NC(=O)[C@H](CO)NC(=O)[C@H](CO)NC(=O)[C@H](CCCCN)NC(=O)[C@H](CSSC[C@H](NC(=O)[C@@H](N)CCC(=O)O)C(=O)N[C@@H](CC(C)C)C(=O)N[C@@H](CCC(=O)O)C(=O)N[C@@H]([C@@H](C)CC)C(=O)N[C@@H](Cc4ccccc4)C(=O)N[C@@H](CCCCN)C(=O)N[C@@H](C)C(=O)N3)NC2=O)C(=O)N[C@@H](CO)C(=O)N[C@@H](CCCNC(=N)N)C(=O)N[C@@H](CCCCN)C(=O)N[C@@H]([C@@H](C)O)C(=O)N[C@@H](CCCNC(=N)N)C(=O)N[C@@H](Cc2c[nH]c3ccccc23)C(=O)N1)C(N)=O [HwTx-IV K^32N]	5750 nM	–	581	> 1000 nM	>4.4
CC[C@H](C)[C@H](NC(=O)[C@H](CCC(N)=O)NC(=O)[C@H](Cc1ccc(O)cc1)NC(=O)[C@H](CCCCN)NC(=O)[C@@H]1CSSC[C@@H]2NC(=O)[C@H](CCC(N)=O)NC(=O)[C@H](CC(=O)O)NC(=O)[C@H](CC(N)=O)NC(=O)[C@H](CO)NC(=O)[C@@H]3CCCN3C(=O)[C@H](CC(N)=O)NC(=O)[C@@H]3CSSC[C@H](NC(=O)[C@H](C(C)C)NC(=O)[C@H](CC(C)C)NC(=O)[C@H](CCCCN)NC(=O)[C@H](CO)NC(=O)[C@H](CO)NC(=O)[C@H](CCCCN)NC(=O)[C@H](CSSC[C@H](NC(=O)[C@@H](N)CCC(=O)O)C(=O)N[C@@H](CC(C)C)C(=O)N[C@@H](CCC(=O)O)C(=O)N[C@@H]([C@@H](C)CC)C(=O)N[C@@H](Cc4ccccc4)C(=O)N[C@@H](CCCCN)C(=O)N[C@@H](C)C(=O)N3)NC2=O)C(=O)N[C@@H](CO)C(=O)N[C@@H](CCCNC(=N)N)C(=O)N[C@@H](CCCCN)C(=O)N[C@@H]([C@@H](C)O)C(=O)N[C@@H](CCCNC(=N)N)C(=O)N[C@@H](Cc2c[nH]c3ccccc23)C(=O)N1)C(=O)N[C@@H](CCCCN)C(=O)O [HwTx-IV K^36/CterCOOH]	29 nM	above 46	2.93	1330 nM	5.89
